Results taken from publication PMC12179037, “Degradation of beechwood xylan using food-grade bacteria-like particles displaying β-xylosidase from Limosilactobacillus fermentum” (Bioresources and Bioprocessing, 2025).

Molecular target: T1, Xyl-L-CshA (LfXyl43 β-xylosidase with C-terminal CshA anchor) (Limosilactobacillus fermentum, UniProt Z9FCD9CVP2)
T1 construct: LfXyl43 fused through (GGGGS)3 linker to C-terminal surface anchor CshA of Lactiplantibacillus plantarum SK156; 6xHis tag; pET21b(+), E. coli BL21(DE3)
T1 sequence (Z9FCD9CVP2 1-551): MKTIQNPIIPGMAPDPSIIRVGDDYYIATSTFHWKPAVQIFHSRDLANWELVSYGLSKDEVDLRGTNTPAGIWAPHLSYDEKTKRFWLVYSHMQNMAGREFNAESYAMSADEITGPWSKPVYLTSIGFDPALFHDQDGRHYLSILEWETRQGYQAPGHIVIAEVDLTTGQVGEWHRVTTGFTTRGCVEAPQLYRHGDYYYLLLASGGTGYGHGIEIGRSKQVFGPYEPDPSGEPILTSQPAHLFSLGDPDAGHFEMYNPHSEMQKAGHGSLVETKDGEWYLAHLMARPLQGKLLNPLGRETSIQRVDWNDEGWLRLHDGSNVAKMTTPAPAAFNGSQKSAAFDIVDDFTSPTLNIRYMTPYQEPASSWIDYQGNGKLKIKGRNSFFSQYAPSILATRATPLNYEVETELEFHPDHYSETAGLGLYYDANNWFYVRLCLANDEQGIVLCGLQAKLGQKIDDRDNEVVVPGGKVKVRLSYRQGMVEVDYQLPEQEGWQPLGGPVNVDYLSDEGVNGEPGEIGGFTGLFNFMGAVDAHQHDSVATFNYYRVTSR
Test: reducing sugar release (DNSA, […] nm); TLC
Format: biochemical
Conditions: purified fusion protein immobilised on bacteria-like particles; 2 mM substrate; 50 mM sodium phosphate pH 7.0; 35 °C; 5 min

OC1OC[C@@H](O[C@@H]2OC[C@@H](O)[C@H](O)[C@H]2O)[C@H](O)[C@H]1O (stereo partly shown) [xylobiose]
reducing sugar release (DNSA, 540 nm); TLC: CshA-L-Xyl and Xyl-L-CshA (i.e., with linker peptide) had higher catalytic activity towards all XOS substrates
